Source: patent US9428508B2, “2,4-diamino-6,7-dihydro-5H-pyrrolo[2,3]pyrimidine derivatives as FAK/Pyk2 inhibitors” (Centaurus BioPharma Co., Ltd., priority 2011, dated 2016)

Experiments:
[1] = molecular target: PYK2 (Homo sapiens (Human), UniProt Q14289); assay: Biochemical assay for PYK2 activity (LANCE TR-FRET, ULight-poly Glu,Ala,Tyr substrate); conditions: GST-tagged PYK2, 40 min reaction
Protocol: (§1) Biochemical Assay for FAK/Pyk2 Activity
(§2) GST-tagged FAK was purchased from Invitrogen (PV3832). GST-tagged PYK2 was purchased from Invitrogen (PV4567). The activity of FAK/PYK2 was measured by monitoring the phosphorylation of a fluorophore labeled ULight-poly Glu, Ala, Tyr (1:1:1) peptide substrate from Perkin Elmer (TRF0101) in the presence of ATP. The phosphorylated tyrosine residue was recognized by a LANCE Europium chelate labeled anti-phosphotyrosine (PY20) antibody from Perkin Elmer (AD0066). This brought the fluorophore and europium chelate in close proximity ([…]) that upon excitation at 320 nm by an Envision (PerkinElmer), energy can be transferred from the donor Europium chelate to the acceptor fluorophore. […] The strength of the signal was, therefore, directly proportional to the FAK/PYK2 activity.
(§3) To measure inhibitory activity of FAK/PYK2 inhibitors, compounds were first prepare as a 1 mM stock in 100% DMSO and 3-fold serial dilution was performed in a 96-well plate (Corning, 3897) to generate 12 different concentration of 100× stock. A 5 μl of 100× stock of each concentration was added to wells containing 95 μl of 1× reaction buffer (40 mM Tris, pH7.5, […], 1 mM DTT and 1 mM CHAPS) to generate 5× stock. Then 2 μl of 5× stock of each concentration was added to a 384 wells-OptiPlate (PerkinElmer, 6007299).
(§4) For PYK2, 5 μl of 2 nM PYK2 and 1.5 μl of 666 nM ULight-poly Glu, Ala, Tyr (1:1:1) peptide substrate, prepared in above reaction buffer, were added to each well. The reaction was initiated by adding 1.5 μl of 46.6 μM ATP. The reaction was allowed to proceed for 40 min before being quenched with 5 μl of 40 mM EDTA stop buffer prepared in 1×LANCE detection buffer (PerkinElmer, CR97-100).
(§5) Upon quenching of the reaction, 5 μl of 8 nM anti-phosphotyrosine antibody was added to each well and incubated for 60 minutes. The plate was measured using an Envision (PerkinElmer) based on the theory mentioned above.

[2] = molecular target: FAK (Homo sapiens (Human), UniProt Q05397); assay: Biochemical assay for FAK activity (LANCE TR-FRET, ULight-poly Glu,Ala,Tyr substrate); conditions: GST-tagged FAK, 120 min reaction
Protocol: as §1, §2, §3
as §4, with “For FAK, 4” for “For PYK2, 5”, “of 2.5” for “of 2”, “nM FAK, 1 ul of 8 μg/μl BSA” for “nM PYK2”, “of 33.3” for “of 46.6”, “for 120” for “for 40”
as §5

Chain of PYK2 (Q14289 whole entry): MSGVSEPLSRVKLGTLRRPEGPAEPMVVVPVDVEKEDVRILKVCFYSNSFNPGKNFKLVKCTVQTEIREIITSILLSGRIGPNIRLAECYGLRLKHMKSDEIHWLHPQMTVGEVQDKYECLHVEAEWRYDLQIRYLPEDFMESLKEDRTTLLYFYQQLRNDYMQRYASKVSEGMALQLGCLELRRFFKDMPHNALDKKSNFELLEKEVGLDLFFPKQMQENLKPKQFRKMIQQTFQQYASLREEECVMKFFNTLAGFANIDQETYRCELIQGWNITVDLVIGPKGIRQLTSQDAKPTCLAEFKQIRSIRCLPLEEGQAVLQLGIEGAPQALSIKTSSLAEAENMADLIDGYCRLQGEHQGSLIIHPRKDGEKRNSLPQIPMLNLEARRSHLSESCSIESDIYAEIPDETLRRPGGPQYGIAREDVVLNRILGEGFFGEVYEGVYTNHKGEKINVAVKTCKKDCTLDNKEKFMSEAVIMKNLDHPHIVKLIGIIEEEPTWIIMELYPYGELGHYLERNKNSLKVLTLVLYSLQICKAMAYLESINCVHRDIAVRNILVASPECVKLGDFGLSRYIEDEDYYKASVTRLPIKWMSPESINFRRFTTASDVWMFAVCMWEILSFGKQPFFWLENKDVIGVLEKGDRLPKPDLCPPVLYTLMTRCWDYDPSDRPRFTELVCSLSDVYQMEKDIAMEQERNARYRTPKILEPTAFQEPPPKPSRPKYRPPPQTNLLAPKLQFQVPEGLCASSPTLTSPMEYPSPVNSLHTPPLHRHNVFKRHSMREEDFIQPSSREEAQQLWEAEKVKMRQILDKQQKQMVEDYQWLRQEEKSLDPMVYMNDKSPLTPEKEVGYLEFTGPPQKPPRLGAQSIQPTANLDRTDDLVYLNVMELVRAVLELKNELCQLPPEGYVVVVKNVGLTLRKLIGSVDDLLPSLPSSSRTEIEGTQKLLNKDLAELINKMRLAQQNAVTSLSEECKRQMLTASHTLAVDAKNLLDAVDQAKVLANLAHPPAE
Chain of FAK (Q05397 whole entry): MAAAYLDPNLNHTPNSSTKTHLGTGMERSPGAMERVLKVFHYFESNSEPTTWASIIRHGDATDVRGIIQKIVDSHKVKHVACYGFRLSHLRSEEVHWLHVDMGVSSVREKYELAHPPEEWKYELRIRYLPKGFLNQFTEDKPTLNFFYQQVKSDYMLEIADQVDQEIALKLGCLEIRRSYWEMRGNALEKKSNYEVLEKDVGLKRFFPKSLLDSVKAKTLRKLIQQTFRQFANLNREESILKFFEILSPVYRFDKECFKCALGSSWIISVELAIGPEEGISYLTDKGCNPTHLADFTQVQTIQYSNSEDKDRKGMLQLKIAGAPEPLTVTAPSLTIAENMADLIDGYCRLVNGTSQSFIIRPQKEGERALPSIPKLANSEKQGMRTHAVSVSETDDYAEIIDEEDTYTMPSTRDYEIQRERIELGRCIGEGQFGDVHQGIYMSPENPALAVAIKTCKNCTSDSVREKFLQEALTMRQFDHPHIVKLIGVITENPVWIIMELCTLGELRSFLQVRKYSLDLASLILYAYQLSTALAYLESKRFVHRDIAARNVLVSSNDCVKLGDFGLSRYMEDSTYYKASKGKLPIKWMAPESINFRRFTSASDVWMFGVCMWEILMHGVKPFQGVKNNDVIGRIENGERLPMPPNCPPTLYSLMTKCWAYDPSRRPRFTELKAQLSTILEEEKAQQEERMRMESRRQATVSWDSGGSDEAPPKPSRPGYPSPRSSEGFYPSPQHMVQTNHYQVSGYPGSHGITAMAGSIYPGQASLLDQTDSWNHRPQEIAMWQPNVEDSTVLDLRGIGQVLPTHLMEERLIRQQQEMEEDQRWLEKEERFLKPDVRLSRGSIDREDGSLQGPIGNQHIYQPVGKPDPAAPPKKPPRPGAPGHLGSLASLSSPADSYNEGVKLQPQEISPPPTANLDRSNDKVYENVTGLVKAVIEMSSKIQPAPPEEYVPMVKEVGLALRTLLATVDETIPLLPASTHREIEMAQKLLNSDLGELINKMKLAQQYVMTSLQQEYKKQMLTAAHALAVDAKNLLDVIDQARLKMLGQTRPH

Row | Structure (SMILES) | IC50 [1] [nM] | IC50 [2] [nM]
1 | CC(C)NS(=O)(=O)c1ccccc1Nc1nc(Nc2ccc(N3CCOCC3)nc2)nc2c1CCN2 [Example 57, N-isopropyl-2-(2-(6-morpholinopyridin-3-ylamino)-6,7-dihydro-5H-pyrrolo[2,3-d]pyrimidin-4-ylamino)benzenesulfonamide] | < 20 | < 20
2 | CNC(=O)c1ccccc1Nc1nc(Nc2ccc(N3CCOCC3)c3c2OCCO3)nc2c1CCN2 [Example 16, N-methyl-2-(2-(8-morpholino-2,3-dihydrobenzo[b][1,4]dioxin-5-ylamino)-6,7-dihydro-5H-pyrrolo[2,3-d]pyrimidin-4-ylamino)benzamide] | < 200 | < 500
3 | COc1cc(N2CCOCC2)ccc1Nc1nc2c(c(NC3CCCCC3N(C)S(C)(=O)=O)n1)C(C)(C)CN2 (stereo not shown) [Example 127, N-(2-(2-(2-methoxy-4-morpholinophenylamino)-5,5-dimethyl-6,7-dihydro-5H-pyrrolo[2,3-d]pyrimidin-4-ylamino)cyclohexyl)-N-methylmethanesulfonamide] | < 100 | < 100
4 | CNC(=O)c1ccccc1Nc1nc(Nc2cccc3c2ccn3CCCN2CCOCC2)nc2c1CCN2 [Example 22, N-methyl-2-(2-(1-(3-morpholinopropyl)-1H-indol-4-ylamino)-6,7-dihydro-5H-pyrrolo[2,3-d]pyrimidin-4-ylamino)benzamide] | < 200 | < 100
5 | COc1cc(N2CCOCC2)ccc1Nc1nc(NCc2ccccc2N(C)S(C)(=O)=O)c2c(n1)NCC2C (racemic) [Example 32, (±)-N-(2-((2-(2-methoxy-4-morpholinophenylamino)-5-methyl-6,7-dihydro-5H-pyrrolo[2,3-d]pyrimidin-4-ylamino)methyl)phenyl)-N-methylmethanesulfonamide] | > 1000 | < 20
6 | CNC(=O)c1ccccc1Nc1nc(Nc2ccc(N3CCOCC3)cc2OC)nc2c1CCN2 [Example 1, 2-(2-(2-methoxy-4-morpholinophenylamino)-6,7-dihydro-5H-pyrrolo[2,3-d]pyrimidin-4-ylamino)-N-methylbenzamide] | < 100 | < 100
7 | COc1cc(OCCN2CCOCC2)ccc1Nc1nc2c(c(Nc3ccccc3S(=O)(=O)NC(C)C)n1)CCN2 [Example 70, N-isopropyl-2-(2-(2-methoxy-4-(2-morpholinoethoxy)phenylamino)-6,7-dihydro-5H-pyrrolo[2,3-d]pyrimidin-4-ylamino)benzenesulfonamide] | < 20 | < 20
8 | COc1cc(N2CCOCC2)ccc1Nc1nc2c(c(Nc3ccccc3S(=O)(=O)NC3CCC3)n1)C(C)CN2 (racemic) [Example 27, (±)-N-cyclobutyl-2-(2-(2-methoxy-4-morpholinophenylamino)-5-methyl-6,7-dihydro-5H-pyrrolo[2,3-d]pyrimidin-4-ylamino)benzenesulfonamide] | < 20 | < 20
9 | COc1cc(N2CCCC2)ccc1Nc1nc2c(c(Nc3ccccc3S(=O)(=O)NC(C)C)n1)CCN2 [Example 67, N-isopropyl-2-(2-(2-methoxy-4-(pyrrolidin-1-yl)phenylamino)-6,7-dihydro-5H-pyrrolo[2,3-d]pyrimidin-4-ylamino)benzenesulfonamide] | < 100 | < 50
10 | CC(C)NS(=O)(=O)c1ccccc1Nc1nc(Nc2ccc(C(C)O)cc2)nc2c1CCN2 (stereo not shown) [Example 69, 2-(2-(4-(1-hydroxyethyl)phenylamino)-6,7-dihydro-5H-pyrrolo[2,3-d]pyrimidin-4-ylamino)-N-isopropylbenzenesulfonamide] | < 20 | < 20
11 | CNC(=O)c1ccccc1Nc1nc(Nc2ccc(N3CCOCC3)cc2OC)nc2c1[C@H](C)CN2 [Example 35, (S)-2-(2-(2-methoxy-4-morpholinophenylamino)-5-methyl-6,7-dihydro-5H-pyrrolo[2,3-d]pyrimidin-4-ylamino)-N-methylbenzamide] | < 20 | < 20
12 | CCC(C)NS(=O)(=O)c1ccccc1Nc1nc(Nc2ccc(N3CCOCC3)cc2OC)nc2c1CCN2 (stereo not shown) [Example 44, N-sec-butyl-2-(2-(2-methoxy-4-morpholinophenylamino)-6,7-dihydro-5H-pyrrolo[2,3-d]pyrimidin-4-ylamino)benzenesulfonamide] | < 20 | < 20
13 | CNS(=O)(=O)c1ccccc1Nc1nc(Nc2ccc(N3CCOCC3)cc2OC)nc2c1C1(CC1)CN2 [Example 135, 2-(2′-(2-methoxy-4-morpholinophenylamino)-6′,7′-dihydrospiro[cyclopropane-1,5′-pyrrolo[2,3-d]pyrimidine]-4′-ylamino)-N-methylbenzenesulfonamide] | < 20 | < 50
14 | COc1cc(N2CCOCC2)ccc1Nc1nc2c(c(Nc3ccccc3N(C)S(C)(=O)=O)n1)C1(CC1)CN2 [Example 156, N-(2-(2′-(2-methoxy-4-morpholinophenylamino)-6′,7′-dihydrospiro[cyclopropane-1,5′-pyrrolo[2,3-d]pyrimidine]-4′-ylamino)phenyl)-N-methylmethanesulfonamide] | < 20 | < 20
15 | CNC(=O)c1ccccc1Nc1nc(Nc2cc(C)nn2C)nc2c1C(C)(C)CN2 [Example 132, 2-(2-(1,3-dimethyl-1H-pyrazol-5-ylamino)-5,5-dimethyl-6,7-dihydro-5H-pyrrolo[2,3-d]pyrimidin-4-ylamino)-N-methylbenzamide] | < 50 | < 20
16 | COc1cc(N2CCOCC2)ccc1Nc1nc2c(c(Nc3ccccc3S(=O)(=O)NCCN(C)C)n1)C(C)(C)CN2 [Example 120, N-(2-(dimethylamino)ethyl)-2-(2-(2-methoxy-4-morpholinophenylamino)-5,5-dimethyl-6,7-dihydro-5H-pyrrolo[2,3-d]pyrimidin-4-ylamino)benzenesulfonamide] | < 50 | < 20
17 | COc1cc(N2CCC(N3CCNCC3)CC2)ccc1Nc1nc2c(c(Nc3ccccc3P(C)(C)=O)n1)CCN2 [Example 163, N^4-(2-(dimethylphosphoryl)phenyl)-N^2-(2-methoxy-4-(4-(piperazin-1-yl)piperidin-1-yl)phenyl)-6,7-dihydro-5H-pyrrolo[2,3-d]pyrimidine-2,4-diamine] | < 50 | < 100
18 | C=CCNS(=O)(=O)c1ccccc1Nc1nc(Nc2ccc(N3CCOCC3)cc2OC)nc2c1C1(CC1)CN2 [Example 144, N-allyl-2-(2′-(2-methoxy-4-morpholinophenylamino)-6′,7′-dihydrospiro[cyclopropane-1,5′-Pyrrolo[2,3-d]pyrimidine]-4′-ylamino)benzenesulfonamide] | < 20 | < 20
19 | CNC(=O)c1ccccc1Nc1nc(Nc2ccc(N3CCOCC3)cc2OC)nc2c1C(C)(C)CN2 [Example 37, 2-(2-(2-methoxy-4-morpholinophenylamino)-5,5-dimethyl-6,7-dihydro-5H-pyrrolo[2,3-d]pyrimidin-4-ylamino)-N-methylbenzamide] | < 20 | < 20
20 | COc1cc(-n2ccnc2)ccc1Nc1nc2c(c(Nc3ccccc3S(=O)(=O)NC(C)C)n1)CCN2 [Example 77, 2-(2-(4-(1H-imidazol-1-yl)-2-methoxyphenylamino)-6,7-dihydro-5H-pyrrolo[2,3-d]pyrimidin-4-ylamino)-N-isopropylbenzenesulfonamide] | < 500 | < 500
21 | COc1cc(N2CCC(N(C)C)C2)ccc1Nc1nc2c(c(Nc3ccccc3S(=O)(=O)NC(C)C)n1)CCN2 (stereo not shown) [Example 89, 2-(2-(4-(3-(dimethylamino)pyrrolidin-1-yl)-2-methoxyphenylamino)-6,7-dihydro-5H-pyrrolo[2,3-d]pyrimidin-4-ylamino)-N-isopropylbenzenesulfonamide] | < 20 | < 20
22 | COc1cc(N2CCC(N(C)C)CC2)ccc1Nc1nc2c(c(Nc3ccccc3S(=O)(=O)NC(C)C)n1)CCN2 [Example 76, 2-(2-(4-(4-(dimethylamino)piperidin-1-yl)-2-methoxyphenylamino)-6,7-dihydro-5H-pyrrolo[2,3-d]pyrimidin-4-ylamino)-N-isopropylbenzenesulfonamide] | < 20 | < 20
23 | COc1cc(N2CCOCC2)ccc1Nc1nc2c(c(Nc3cccc(C)n3)n1)CCN2 [Example 12, N^2-(2-methoxy-4-morpholinophenyl)-N^4-(6-methylpyridin-2-yl)-6,7-dihydro-5H-pyrrolo[2,3-d]pyrimidine-2,4-diamine] | < 100 | < 100
